Assay: Antagonist activity at CCR5 in allo T cells assessed as inhibition of MIP-1beta-induced chemotaxis

IC50: 0.69 nM
Compound: CCN(C(=O)Cc1ccc(S(C)(=O)=O)cc1)C1CCN(CC[C@@H](c2cc(F)cc(F)c2)C2CCN(S(C)(=O)=O)CC2)CC1

Source: BindingDB's records for doi:10.1016/j.bmcl.2011.12.117 (Astrazeneca, 2012)
